This is an account of results in article PMC7866395, “A Pipeline towards the Biochemical Characterization of the Arabidopsis GT14 Family” (International Journal of Molecular Sciences, 2021).

Type in all cases: biochemical
In one experiment the target is T1, AT4G27480 (248) (Arabidopsis thaliana, UniProt F4JIW2).
T1 construct: full-length CDS, C-terminal YFP and HA tags (pEarleyGate 101), transient expression in Nicotiana benthamiana, Triton X-100 treated microsomal membranes, about 75 kDa fusion
As to the kind of experiment: glucuronosyltransferase assay, RP-HPLC with fluorescence detection. The conditions noted are these: donor 0.4 mM; acceptor 5 uM β-Gal-NBD, β-1,6-Gal4-AA or β-1,3-Gal5-AA; 25 °C, 2 h; microsomes.

The target of experiment [1] is T2, AT5G15050 (249, AtGlcAT14B) (Arabidopsis thaliana, UniProt Q9LFQ0).
T2 construct: gene GLCAT14B; full-length CDS, C-terminal YFP and HA tags (pEarleyGate 101), transient expression in Nicotiana benthamiana, Triton X-100 treated microsomal membranes, about 75 kDa fusion
T2 sequence (Q9LFQ0 1-434): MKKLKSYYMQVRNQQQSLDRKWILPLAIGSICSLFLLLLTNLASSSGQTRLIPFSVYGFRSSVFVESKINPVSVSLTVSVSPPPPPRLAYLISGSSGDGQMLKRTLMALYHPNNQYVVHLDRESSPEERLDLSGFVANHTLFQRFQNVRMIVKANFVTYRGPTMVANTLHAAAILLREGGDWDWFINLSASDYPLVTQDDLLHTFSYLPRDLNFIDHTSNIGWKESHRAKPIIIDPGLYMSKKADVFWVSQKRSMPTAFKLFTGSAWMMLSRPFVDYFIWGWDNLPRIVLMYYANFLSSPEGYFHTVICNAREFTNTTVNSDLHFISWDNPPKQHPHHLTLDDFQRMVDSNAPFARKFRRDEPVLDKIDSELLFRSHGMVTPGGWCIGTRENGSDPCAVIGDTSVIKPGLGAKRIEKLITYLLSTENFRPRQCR
Described as above. The conditions noted are these: donor 0.4 mM; acceptor 5 uM β-Gal-NBD, β-1,6-Gal4-AA or β-1,3-Gal5-AA; 25 °C, 2 h; microsomes.

Experiment [2] deals with T3, AT3G15350 (245, AtGlcAT14E) (Arabidopsis thaliana, UniProt Q9LE60).
T3 construct: full-length CDS, C-terminal YFP and HA tags (pEarleyGate 101), transient expression in Nicotiana benthamiana, Triton X-100 treated microsomal membranes, about 75 kDa fusion
T3 sequence (Q9LE60 1-424): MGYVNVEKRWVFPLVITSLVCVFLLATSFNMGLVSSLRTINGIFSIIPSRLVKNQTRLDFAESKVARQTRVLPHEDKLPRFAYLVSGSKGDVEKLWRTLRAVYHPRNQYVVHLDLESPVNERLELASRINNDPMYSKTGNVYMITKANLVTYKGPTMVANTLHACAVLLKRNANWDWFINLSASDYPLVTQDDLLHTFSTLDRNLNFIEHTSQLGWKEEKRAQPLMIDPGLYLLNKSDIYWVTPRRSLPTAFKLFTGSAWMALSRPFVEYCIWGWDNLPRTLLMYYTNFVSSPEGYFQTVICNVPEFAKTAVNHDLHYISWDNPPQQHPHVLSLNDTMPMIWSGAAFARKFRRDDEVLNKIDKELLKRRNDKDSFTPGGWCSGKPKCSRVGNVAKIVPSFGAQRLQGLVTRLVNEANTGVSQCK
As to the kind of experiment: glucuronosyltransferase assay, RP-HPLC fluorescence and LC-ESI-MS of products. The conditions noted are these: donor 0.4 mM; acceptor 5 uM β-1,3-Gal5-AA; 25 °C, 2 h; microsomes.

T1 sequence (F4JIW2 1-421): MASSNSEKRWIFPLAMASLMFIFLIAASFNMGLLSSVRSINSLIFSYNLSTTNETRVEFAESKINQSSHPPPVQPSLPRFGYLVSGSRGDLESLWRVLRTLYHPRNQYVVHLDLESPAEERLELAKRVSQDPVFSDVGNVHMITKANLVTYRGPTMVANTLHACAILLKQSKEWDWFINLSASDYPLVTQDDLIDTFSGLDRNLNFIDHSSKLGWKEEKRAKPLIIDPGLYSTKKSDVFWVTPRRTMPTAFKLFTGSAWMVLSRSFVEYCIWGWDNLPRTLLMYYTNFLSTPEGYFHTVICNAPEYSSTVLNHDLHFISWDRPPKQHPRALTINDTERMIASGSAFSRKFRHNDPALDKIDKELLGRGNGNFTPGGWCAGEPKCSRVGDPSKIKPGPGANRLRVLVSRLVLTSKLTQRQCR

With `O=C(O)[C@H]1O[C@H](OP(=O)(O)OP(=O)(O)OC[C@H]2O[C@@H](n3ccc(=O)[nH]c3=O)[C@H](O)[C@@H]2O)[C@H](O)[C@@H](O)[C@@H]1O` [UDP-GlcA], the “glucuronosyltransferase assay, RP-HPLC with fluorescence detection” value was “AT4G27480 show the GlcAT activity using the three different acceptors” at AT4G27480 (248); “This result confirms that AtGlcAT14B and AtGlcAT14E have GlcAT activity” in experiment [1]. Besides, the “glucuronosyltransferase assay, RP-HPLC fluorescence and LC-ESI-MS of products” value in experiment [2] is given as “However, only UDP-GlcA was an active substrate donor”.
